Source: patent publication US5461036A, “Spicamycin derivatives and their use as anticancer agents” (priority 1991, dated 1995)
Where two headings read alike, the source gives them in different places.

Legend:
in vivo = assay: in vivo; parameters: species or system nude mice (BALB/c nu/nu); settings: mouse, in vivo; intravenous, continuous 5 days, nude mice; maximum dose at which no animal was dead within 2 weeks; read-out: Maximum tolerated dose
Experimental: (1) Measurement of maximum tolerated dose (MTD) of the spicamycin derivatives in nude mice
The spicamycin derivative was dissolved in dimethylsulfoxide (DMSO) and Cremophor EL® at the same volume as DMSO was added. Physiological saline was added so that the concentration of DMSO and Cremophor EL® was finally adjusted to 1%, respectively, and thus injection liquids of spicamycin derivative in a variety of concentrations were prepared. […] The maximum dose at which no animal was dead was defined as the MTD of the respective derivatives.

[1] = system: human colon cancer (COL-1); type: in vivo, mouse; settings: for TGIR (tumor growth inhibition rate, maximum) / minTx (relative tumor volume when reduced to the minimum): COL-1 s.c. in nude mice, at MTD; for TGIR (tumor growth inhibition rate, maximum): TGIR=(1-Tx/Cx)×100, maximum during about 3 weeks; for minTx (relative tumor volume when reduced to the minimum): minimum throughout the test period
Experimental: (2) Method for measuring the antitumor effect on human colon cancer (COL-1)
COL-1, a human colon cancer, was transplanted subcutaneously into nude mice. When the tumor had grown to a volume of about 100 mm^3, the nude mice were divided into groups of 5 animals so that the average tumor volumes of respective groups were equalized. The respective spicamycin derivatives were administered to test groups at their MTDs, while physiological saline (solvent) containing 1% DMSO and 1% Cremophor EL® was administered to the control group. […] RV is expressed as RV =Vn/Vo where Vn is the tumor volume on day n and Vo is the initial tumor volume at the time treatment was commenced.

[2] = /minimum effective dose (effective: TGIR≥50)

Structure (SMILES) | MTD at 336 h (in vivo) | TGIR (tumor growth inhibition rate, maximum) [1] | Therapeutic index [1, 2] | minTx (relative tumor volume when reduced to the minimum) [1] | Therapeutic index ([1]; mouse, in vivo)
O=C(CCCCCCCCCCI)NCC(=O)NC1C(O)C(O)C(Nc2ncnc3[nH]cnc23)OC1C(O)CO (stereo not drawn) [SPK165, 6-[4'-N-(N'-11-iodoundecanoylglycyl)spicaminyl-amino]purine] | 24 mg/kg/day | 86 | – | – | –
CCCCCCCCCCCCCCC(F)C(=O)NCC(=O)NC1C(O)C(O)C(Nc2ncnc3[nH]cnc23)OC1C(O)CO (stereo not drawn) [SPK233, 6-[4'-N-(N'-2-fluorohexadecanoylglycyl)spicaminyl-amino]purine] | 2.7 mg/kg/day | 96 | 4 | 0.13 | –
O=C(CCCCCCCCCCCCCF)NCC(=O)N[C@@H]1[C@@H](O)[C@@H](O)[C@@H](Nc2ncnc3[nH]cnc23)O[C@H]1C(O)CO (stereo partly drawn) [SPK279, 6-[4,-N-(N,-14-fluorotetradecanoylglycyl)spicaminyl-amino]purine] | 6 mg/kg/day | 93 | – | 0.25 | 8
CCCCS(=O)(=O)OCCCCCCCCCCCC(=O)NCC(=O)NC1C(O)C(O)C(Nc2ncnc3[nH]cnc23)OC1C(O)CO (stereo not drawn) [SPK232, 6-[4'-N-(N'-12-butanesulfonyloxydodecanoylglycyl)spicaminyl-amino]purine] | 24 mg/kg/day | 96 | – | – | 4
O=C(CCCCCCCCCCCOc1ccccc1)NCC(=O)NC1C(O)C(O)C(Nc2ncnc3[nH]cnc23)OC1C(O)CO (stereo not drawn) [SPK249, 6-[4'-N-(N'-12-phenoxydodecanoylglycyl)-spicaminyl-amino]purine] | 3 mg/kg/day | 88 | – | 0.26 | 4
CCCCCCCCCCC(F)C(=O)NCC(=O)NC1C(O)C(O)C(Nc2ncnc3[nH]cnc23)OC1C(O)CO (stereo not drawn) [SPK159, 6-[4'-N-(N'-2-fluorododecanoylglycyl)spicaminyl-amino]purine] | 24 mg/kg/day | 96 | – | – | 4
CCCCCCCCCCC/C=C/C(=O)NCC(=O)N[C@@H]1[C@@H](O)[C@@H](O)[C@@H](Nc2ncnc3[nH]cnc23)O[C@H]1C(O)CO (stereo partly drawn) [SPK156, 6-[4'-N-(N'-trans-2-tetradecenoylglycyl)spicaminyl-amino]purine] | 3 mg/kg/day | 92 | – | – | 4
O=C(CCCCCCCCCCCCCCF)NCC(=O)NC1C(O)C(O)C(Nc2ncnc3[nH]cnc23)OC1C(O)CO (stereo not drawn) [SPK247, 6-[4,-N-(N'-15-fluoropentadecanoylglycyl)spicaminyl-amino]purine] | 6 mg/kg/day | 96 | – | 0.16 | 8
CCCCCCCCCCCCCC[C@H](O)C(=O)NCC(=O)NC1C(O)C(O)C(Nc2ncnc3[nH]cnc23)OC1C(O)CO (stereo partly drawn) [SPK271, 6-[4'-N-(N'-(S)-2-hydroxyhexadecanoylglycyl)spicaminyl-amino]purine] | 2 mg/kg/day | 99 | 8 | 0.09 | –
CCCCCCCCC/C=C/C(=O)NCC(=O)N[C@@H]1[C@@H](O)[C@@H](O)[C@@H](Nc2ncnc3[nH]cnc23)O[C@H]1C(O)CO (stereo partly drawn) [SPK86, 6-[4'-N-(N'-trans-2-dodecenoylglycyl)spicaminyl-amino]purine] | 18 mg/kg/day | 86 | – | – | –
CCCCCCCCCCCCC(F)(F)C(=O)NCC(=O)NC1C(O)C(O)C(Nc2ncnc3[nH]cnc23)OC1C(O)CO (stereo not drawn) [SPK182, 6-[4,-N-(N'-2,2-difluorotetradecanoylglycyl)spicaminyl-amino]purine] | 36 mg/kg/day | 90 | – | 0.24 | 8
N#CCCCCCCCCCCCCCCCC(=O)NCC(=O)NC1C(O)C(O)C(Nc2ncnc3[nH]cnc23)OC1C(O)CO (stereo not drawn) [SPK177, 6-[4'-N-(N'-16-cyanohexadecanoylglycyl)-spicaminyl-amino]purine] | 13.5 mg/kg/day | 99 | – | – | 4
C=CCCCCCCCCCC(=O)NCC(=O)N[C@@H]1[C@@H](O)[C@@H](O)[C@@H](Nc2ncnc3[nH]cnc23)O[C@H]1C(O)CO (stereo partly drawn) [SPK44, 6-[4 '-N-(N'-11-dodecenoylglycyl)spicaminyl-amino]purine] | 4 mg/kg/day | 94 | 4 | 0.16 | –
O=C(CCCCCCCCCCCBr)NCC(=O)N[C@@H]1[C@@H](O)[C@@H](O)[C@@H](Nc2ncnc3[nH]cnc23)O[C@H]1C(O)CO (stereo partly drawn) [SPK152, 6-[4'-N-(N'-12-bromododecanoylglycyl)spicaminyl-amino]purine] | 36 mg/kg/day | 100 | – | 0.03 | 8
O=C(CCCCCCCCCCCCCBr)NCC(=O)N[C@@H]1[C@@H](O)[C@@H](O)[C@@H](Nc2ncnc3[nH]cnc23)O[C@H]1C(O)CO (stereo partly drawn) [SPK273, 6-[4'-N-(N'-14-bromotetradecanoylglycyl)spicaminyl-amino]purine] | 12 mg/kg/day | 98 | – | 0.11 | 8
O=C(CCCCCCCCC#Cc1ccsc1)NCC(=O)NC1C(O)C(O)C(Nc2ncnc3[nH]cnc23)OC1C(O)CO (stereo not drawn) [SPK263, 6-{4,-N-[N'-11-(3'-thienyl)-10-undecynoylglycyl]spicaminyl-amino}purine] | 12 mg/kg/day | 97 | – | 0.09 | 8
CCCCCCCCCCC[C@@H](O)CC(=O)NCC(=O)NC1C(O)C(O)C(Nc2ncnc3[nH]cnc23)OC1C(O)CO (stereo partly drawn) [SPK270, 6-[4'-N-(N'-(R)-3-hydroxytetradecanoylglycyl)spicaminyl-amino]purine] | 12 mg/kg/day | 94 | – | 0.21 | 4
O=C(CCCCCCCCCCCCBr)NCC(=O)N[C@@H]1[C@@H](O)[C@@H](O)[C@@H](Nc2ncnc3[nH]cnc23)O[C@H]1C(O)CO (stereo partly drawn) [SPK276, 6-[4'-N-(N'-13-bromotridecanoylglycyl)spicaminyl-amino]purine] | 12 mg/kg/day | 96 | – | 0.16 | 8
O=C(CCCCCCCCCCCCCl)NCC(=O)N[C@@H]1[C@@H](O)[C@@H](O)[C@@H](Nc2ncnc3[nH]cnc23)O[C@H]1C(O)CO (stereo partly drawn) [SPK278, 6-[4'-N-(N'-13-chlorotridecanoylglycyl)spicaminyl-amino]purine] | 12 mg/kg/day | 92 | – | 0.21 | 8
CCCCCC/C=C\CCCCCCCC(=O)NCC(=O)N[C@@H]1[C@@H](O)[C@@H](O)[C@@H](Nc2ncnc3[nH]cnc23)O[C@H]1C(O)CO (stereo partly drawn) [SPK148, 6-[4,-N-(N'-cis-9-hexadecenoylglycyl)spicaminyl-amino]purine] | 3.4 mg/kg/day | 94 | 4 | 0.21 | –
C=CCCCCCCCCCCC(=O)NCC(=O)N[C@@H]1[C@@H](O)[C@@H](O)[C@@H](Nc2ncnc3[nH]cnc23)O[C@H]1C(O)CO (stereo partly drawn) [SPK142, 6-[4'-N-(N'-12-tridecenoylglycyl)spicaminyl-amino]purine] | 6 mg/kg/day | 99 | – | 0.09 | 4
CCCCCCCCCCCCCC(CC(=O)NCC(=O)NC1C(O)C(O)C(Nc2ncnc3[nH]cnc23)OC1C(O)CO)OC(C)=O (stereo not drawn) [SPK189, 6-[4'-N-(N'-3-acetoxyhexadecanoylglycyl)-spicaminyl-amino]purine] | 6 mg/kg/day | 98 | – | 0.09 | 4
O=C(CCCCCCCCCCOc1ccccc1)NCC(=O)NC1C(O)C(O)C(Nc2ncnc3[nH]cnc23)OC1C(O)CO (stereo not drawn) [SPK422, 6-[4'-N-(N'-11-phenoxyundecanoylglycyl)-spicaminyl-amino]purine] | 3.4 mg/kg/day | 95 | – | – | 4
O=C(CCCCCCCCC#Cc1cccs1)NCC(=O)NC1C(O)C(O)C(Nc2ncnc3[nH]cnc23)OC1C(O)CO (stereo not drawn) [SPK262, 6-{4'-N-[N'-11-(2'-thienyl)-10-undecynoylglycyl]spicaminyl-amino}purine] | 8 mg/kg/day | 99 | – | 0.03 | 4
CCCCCCCCCCCCCCC(Cl)C(=O)NCC(=O)NC1C(O)C(O)C(Nc2ncnc3[nH]cnc23)OC1C(O)CO (stereo not drawn) [SPK135, 6-[4'-N-(N'-2-chlorohexadecanoylglycyl)spicaminylamino]purine] | 24 mg/kg/day | 93 | – | – | 4
